Experimental data: patent US6852737B2 (Recordati Ireland Limited, priority 2001, dated 2005)
“And” between values parts separate entries of the source, which are not always exact repeats. Equal values may be shown once. “Also recorded” adds a separate entry of the source. Where a name gives a salt, the structure may show the parent alone. Marks after values point to notes of the source that are not given here.

Tests used:
[1] = Hygroscopicity (DVS analysis); type: physicochemical; settings: 25° C.
Description: The hygroscopicity of both crystalline Forms (I) and (II) was measured with DVS analysis by means of a water absorption analyzer (SURFACE MEASUREMENT SYSTEM, Marion, Buckinghamshire, UK) according to the following working conditions: […]

[2] = Stability of crystalline forms; type: physicochemical; settings: hydrochloride
[3] = Bioavailability of crystalline forms in dog; type: in vivo, Beagle dogs
Description: A study was carried out on six Beagle dogs to evaluate the bioavailability of crystalline Forms (I) and (II).
Blood samples were taken at given times and plasma concentrations of lercanidipine were determined with a stereoselective analytical method HPLC-MS/MS, according to the following working conditions;
Lercanidipine was extracted from dog plasma by means of a liquid-liquid extraction with a mixture of n-hexane and ethyl ether. The dry residue of the organic phase was taken up with a mixture of methanol and water and a liquid-phase chromatographic separation (LC) was carried out; the two enantiomers of lercanidipine were separated on a CHIROBIOTIC V column (Vancomycin) (particle size […], column size 150×4.6 mm (ASTEC, NJ, USA)) and were detected with a mass spectrometer (MS/MS) by using an electrospray technique.
The analytical method was validated in a concentration range between 0.1 and 20 ng/ml of plasma for both enantiomers. The method has shown to be specific with an accuracy of 15%. The average concentrations of lercanidipine in the tables represent the sum of both enantiomers.

[4] = Relative bioavailability in man; type: in vivo; settings: for bioequivalence to Form I / AUC0−t, geom. least square mean / Cmax, geom. least square mean / tmax, median: 10 mg tablet; for bioequivalence to Form I / AUC0−t, geom. least square mean / Cmax, geom. least square mean / tmax, median / time of maximum concentration (tmax) compared to the other crystalline form: hydrochloride; for AUC0−t, geom. least square mean / Cmax, geom. least square mean / tmax, median / time of maximum concentration (tmax) compared to the other crystalline form: single dose; for AUC0−t, geom. least square mean: 16 volunteers
Description: Blood samples were taken at 15 points from time 0 to 24 h post-dosing and plasma concentrations of lercanidipine were determined with a stereoselective analytical method HPLC-MS/MS as described in Example 19a, as validated for man at the same concentration intervals.

[5] = oral administration; cited from earlier work
[6] = system: isolated rat aorta; settings: drug removed from the environment of the aortic tissue for 6 hours; cited from earlier work
[7] = 0 h, Mean (dog 2 not included), oral 3 mg/kg
[8] = 0.5 h, Dog 1, oral 3 mg/kg, hydrochloride, 3 mg/kg
[9] = 0.5 h, Dog 3, oral 3 mg/kg, hydrochloride, 3 mg/kg
[10] = 0.5 h, Mean (dog 2 not included), oral 3 mg/kg, hydrochloride, 3 mg/kg
[11] = 1 h, Dog 1, oral 3 mg/kg, hydrochloride, 3 mg/kg
[12] = 1 h, Dog 3, oral 3 mg/kg, hydrochloride, 3 mg/kg
[13] = 1 h, Dog 4, oral 3 mg/kg, hydrochloride, 3 mg/kg
[14] = 1 h, Dog 5, oral 3 mg/kg, hydrochloride, 3 mg/kg
[15] = 1.5 h, Dog 4, oral 3 mg/kg, hydrochloride, 3 mg/kg
[16] = 1.5 h, Dog 6, oral 3 mg/kg, hydrochloride, 3 mg/kg
[17] = 6 h (last sampling time), Mean (dog 2 not included), oral 3 mg/kg, hydrochloride, 3 mg/kg
[18] = Dog 2, oral 3 mg/kg, hydrochloride, 3 mg/kg
[19] = Dog 3, oral 3 mg/kg, hydrochloride, 3 mg/kg
[20] = Dog 4, oral 3 mg/kg, hydrochloride, 3 mg/kg

In the case of `COC(=O)C1=C(C)NC(C)=C(C(=O)OC(C)(C)CN(C)CCC(c2ccccc2)c2ccccc2)C1c1cccc([N+](=O)[O-])c1` (single isomer, unassigned) [Form (II), lercanidipine hydrochloride], the mass variation ([1]; whole RH range tested (0-95%)) is reported as < 0.05%, the stability [2] is reported as “good stability; also recorded: stable” and the “concentration in plasma of lercanidipine (S + R)” value (“concentration in plasma” below) ([3]; 0 h, Dog 1, oral 3 mg/kg) is reported as 0.00 ng/mL. For the same molecule, the “concentration in plasma” value ([3]; 0 h, Dog 2, oral 3 mg/kg) was 0.00 ng/mL, the “concentration in plasma” value ([3]; 0 h, Dog 3, oral 3 mg/kg) was 0.00 ng/mL and the “concentration in plasma” value ([3]; 0 h, Dog 4, oral 3 mg/kg) was 0.00 ng/mL. For the same molecule, the “concentration in plasma” value ([3]; 0 h, Dog 5, oral 3 mg/kg) was 0.00 ng/mL, the “concentration in plasma” value ([3]; 0 h, Dog 6, oral 3 mg/kg) was 0.00 ng/mL and the “concentration in plasma” value [3, 7] was 0.00 ng/mL. For the same molecule, the “concentration in plasma” value [3, 8] was 0.00 ng/mL, the “concentration in plasma” value [3, 9] was 6.99 ng/mL and the “concentration in plasma” value ([3]; 0.5 h, Dog 4, oral 3 mg/kg) was 0.00 ng/mL. For the same molecule, the “concentration in plasma” value ([3]; 0.5 h, Dog 5, oral 3 mg/kg) was 0.00 ng/mL, the “concentration in plasma” value ([3]; 0.5 h, Dog 6, oral 3 mg/kg) was 0.00 ng/mL and the “concentration in plasma” value [3, 10] was 1.40 ng/mL. The “concentration in plasma” value [3, 11] was 0.00 ng/mL, the “concentration in plasma” value [3, 12] was 16.61 ng/mL and the “concentration in plasma” value [3, 13] was 5.50 ng/mL. The “concentration in plasma” value [3, 14] was 3.28 ng/mL, the “concentration in plasma” value ([3]; 1 h, Dog 6, oral 3 mg/kg) was 0.00 ng/mL and the “concentration in plasma” value ([3]; 1.5 h, Dog 1, oral 3 mg/kg, hydrochloride, 3 mg/kg) was 0.23 ng/mL. For the same molecule, the “concentration in plasma” value [3, 15] was 35.43 ng/mL, the “concentration in plasma” value [3, 16] was 3.49 ng/mL and the “concentration in plasma” value ([3]; 2 h, Dog 1, oral 3 mg/kg, hydrochloride, 3 mg/kg) was 7.63 ng/mL. For the same molecule, the “concentration in plasma” value ([3]; 3 h, Dog 4, oral 3 mg/kg, hydrochloride, 3 mg/kg) was 28.36 ng/mL, the “concentration in plasma” value ([3]; 3 h, Dog 5, oral 3 mg/kg, hydrochloride, 3 mg/kg) was 40.57 ng/mL and the “concentration in plasma” value ([3]; 3 h, Dog 6, oral 3 mg/kg, hydrochloride, 3 mg/kg) was 14.10 ng/mL. For the same molecule, the “concentration in plasma” value ([3]; 4 h, Dog 3, oral 3 mg/kg, hydrochloride, 3 mg/kg) was 14.10 ng/mL, the “concentration in plasma” value ([3]; 4 h, Dog 5, oral 3 mg/kg, hydrochloride, 3 mg/kg) was 23.66 ng/mL and the “concentration in plasma” value [3, 17] was 10.9 ± 6.8 ng/mL. The “concentration in plasma” value ([3]; 6 h, Dog 2, oral 3 mg/kg, hydrochloride, 3 mg/kg) was 4.50 ng/mL, the Tmax [3, 18] was 1.50 h and the Cmax [3, 19] was 19.78 ng/mL. For the same molecule, the Cmax [3, 20] was 52.64 ng/mL, the Cmax ([3]; Dog 6, oral 3 mg/kg, hydrochloride, 3 mg/kg) was 18.56 ng/mL and the “bioequivalence to Form I” value [4] was “not bioequivalent”. The “bioequivalence to Form I” value ([4]; listed as Form II) was “non equivalent”, the “AUC0−t, geom. least square mean” value [4] was 10.36 ng·h/mL and the “Cmax, geom. least square mean” value [4] was 3.22 ng/mL. The “tmax, median” value [4] was 2.50* h, the “tmax Point Estimate (T/R), median difference” value ([4]; T = Form (II) tablet, R = Form (I) tablet (Zanedip 10 mg)) was 0.75** h and the “time of maximum concentration (tmax) compared to the other crystalline form” value [4] was “delayed”.

For `COC(=O)C1=C(C)NC(C)=C(C(=O)OC(C)(C)CN(C)CCC(c2ccccc2)c2ccccc2)C1c1cccc([N+](=O)[O-])c1` (stereo not drawn) [Lercanidipine, methyl 1,1,N-trimethyl-N-(3,3-diphenylpropyl)-2-aminoethyl 1,4-dihydro-2,6-dimethyl-4-(3-nitrophenyl)pyridine-3,5-dicarboxylate], the “time of peak plasma levels following dosing” value [5] is given as 2 to 3 h and the “response to high K+ after the drug has been removed” value [6] is given as “attenuated”.

In the case of `COC(=O)C1=C(C)NC(C)=C(C(=O)OC(C)(C)CN(C)CCC(c2ccccc2)c2ccccc2)C1c1cccc([N+](=O)[O-])c1` (single isomer, unassigned) [Form (I), lercanidipine hydrochloride], the mass change ([1]; 0% RH) is reported as −0.3%, the mass change ([1]; 95% RH) is reported as “+0.15%” and the stability [2] is reported as “good stability; also recorded: stable”. The “concentration in plasma” value ([3]; 0 h, Dog 1, oral 3 mg/kg) was 0.00 ng/mL, the “concentration in plasma” value ([3]; 0 h, Dog 2, oral 3 mg/kg) was 0.00 ng/mL and the “concentration in plasma” value ([3]; 0 h, Dog 3, oral 3 mg/kg) was 0.00 ng/mL. For the same molecule, the “concentration in plasma” value ([3]; 0 h, Dog 4, oral 3 mg/kg) was 0.00 ng/mL, the “concentration in plasma” value ([3]; 0 h, Dog 5, oral 3 mg/kg) was 0.00 ng/mL and the “concentration in plasma” value ([3]; 0 h, Dog 6, oral 3 mg/kg) was 0.00 ng/mL. The “concentration in plasma” value [3, 7] was 0.00 ng/mL, the “concentration in plasma” value [3, 8] was 0.1 ng/mL and the “concentration in plasma” value ([3]; 0.5 h, Dog 2, oral 3 mg/kg, hydrochloride, 3 mg/kg) was 0.20 ng/mL. For the same molecule, the “concentration in plasma” value [3, 9] was 0.00 ng/mL, the “concentration in plasma” value ([3]; 0.5 h, Dog 4, oral 3 mg/kg) was 0.00 ng/mL and the “concentration in plasma” value ([3]; 0.5 h, Dog 5, oral 3 mg/kg) was 0.00 ng/mL. For the same molecule, the “concentration in plasma” value ([3]; 0.5 h, Dog 6, oral 3 mg/kg) was 0.00 ng/mL, the “concentration in plasma” value [3, 10] was 0.00 ng/mL and the “concentration in plasma” value [3, 11] was 0.59 ng/mL. The “concentration in plasma” value ([3]; 1 h, Dog 2, oral 3 mg/kg, hydrochloride, 3 mg/kg) was 0.29 ng/mL, the “concentration in plasma” value [3, 12] was 0.00 ng/mL and the “concentration in plasma” value [3, 13] was 0.00 ng/mL. For the same molecule, the “concentration in plasma” value [3, 14] was 0.00 ng/mL, the “concentration in plasma” value ([3]; 1 h, Dog 6, oral 3 mg/kg) was 0.00 ng/mL and the “concentration in plasma” value ([3]; 1 h, Mean (dog 2 not included), oral 3 mg/kg, hydrochloride, 3 mg/kg) was 0.12 ng/mL. For the same molecule, the “concentration in plasma” value ([3]; 1.5 h, Dog 3, oral 3 mg/kg, hydrochloride, 3 mg/kg) was 0.32 ng/mL, the “concentration in plasma” value [3, 15] was 0.00 ng/mL and the “concentration in plasma” value [3, 16] was 0.00 ng/mL. The “concentration in plasma” value ([3]; 1.5 h, Mean (dog 2 not included), oral 3 mg/kg, hydrochloride, 3 mg/kg) was 0.70 ng/mL, the “concentration in plasma” value ([3]; 2 h, Dog 3, oral 3 mg/kg, hydrochloride, 3 mg/kg) was 0.94 ng/mL and the “concentration in plasma” value ([3]; 2 h, Dog 4, oral 3 mg/kg, hydrochloride, 3 mg/kg) was 0.35 ng/mL. For the same molecule, the “concentration in plasma” value ([3]; 2 h, Dog 6, oral 3 mg/kg, hydrochloride, 3 mg/kg) was 0.28 ng/mL, the “concentration in plasma” value ([3]; 3 h, Dog 3, oral 3 mg/kg, hydrochloride, 3 mg/kg) was 0.92 ng/mL and the “concentration in plasma” value [3, 17] was 8.5 ± 6.5 ng/mL and 8.50 ng/mL. For the same molecule, the “concentration in plasma” value ([3]; 6 h, Dog 1, oral 3 mg/kg, hydrochloride, 3 mg/kg) was 0.80 ng/mL, the “concentration in plasma” value ([3]; 6 h, Dog 5, oral 3 mg/kg, hydrochloride, 3 mg/kg) was 9.73 ng/mL and the “concentration in plasma” value ([3]; 6 h, Dog 6, oral 3 mg/kg, hydrochloride, 3 mg/kg) was 17.83 ng/mL. For the same molecule, the Tmax ([3]; Dog 1, oral 3 mg/kg, hydrochloride, 3 mg/kg) was 2.00 h, the Tmax [3, 18] was 4.00 h and the Tmax [3, 19] was 6.00 h. For the same molecule, the Tmax [3, 20] was 3.00 h, the Tmax ([3]; Dog 5, oral 3 mg/kg, hydrochloride, 3 mg/kg) was 3.00 h and the Tmax ([3]; Mean (n = 5, dog 2 not included), oral 3 mg/kg, hydrochloride, 3 mg/kg) was 4.00 h. For the same molecule, the “AUC0−t, geom. least square mean” value [4] was 8.82 ng·h/mL, the “Cmax, geom. least square mean” value [4] was 3.18 ng/mL and the “tmax, median” value [4] was 1.50* h. For the same molecule, the “time of maximum concentration (tmax) compared to the other crystalline form” value [4] was “shorter time”.
